Data published in PMC2228116 (British Journal of Cancer, 1997).
Where “and” joins values, the source holds several entries; their conditions need not be identical. Equal values may be shown once.

What was measured:
[1] = in vitro; conditions: male, Wistar, rat, pH 7.4
Protocol: (§1) British Joumal of Cancer (1997) 76(9), 1170-1180 ? […] Livers were perfused with 5-FU alone at a dose of 15 mg kg-' body weight or with 5-FU + GW776 at doses of 15 mg 5-FU kg-' body weight and 0.5 mg GW776 kg-' body weight injected 1 h before 5-FU. […] Keywords: 5-fluorouracil; 5-ethynyluracil (GW776); 19F nuclear magnetic resonance; modulation of 5-fluorouracil metabolism; fluoroacetate; 2-fluoro-3-hydroxypropionic acid; isolated perfused rat liver 5-Fluorouracil (5-FU) is one of the most commonly used anti- cancer agents for treatment of solid tumours. Common clinical adverse reactions include myelosuppression, diarrhoea, vomiting and mucositis. […] 5-Ethynyluracil (GW776) is a potent inactivator of the catabolic pathway of 5-FU acting on dihydropyrimidine dehydrogenase (DPD), the enzyme that converts 5-FU into its first catabolite, 5,6-dihydro-5-fluorouracil (FUH2), thereby preserving 5-FU from its rapid and extensive catabolism (Porter et al, 1992; Baccanari et al, 1993; Spector et al, 1993). […] MATERIALS AND METHODS IPRL experiments Livers from male Wistar rats (Iffa Credo, Lyon, France) were isolated and perfused with recirculation of the perfusion medium according to the design originally described by Brauer et al (1951) and modified by Sabouraud et al (1993). The recirculating perfusate (approximately 180 ml), oxygenated with oxygen- carbon dioxide (95%:5%), was a Krebs-Ringer bicarbonate buffer supplemented with glucose (1.3 mM) and bovine serum albumin (0.5%). The perfusate (pH 7.4) was recirculated at a mean flow rate of 10 ml min-1 g-' of liver. The experiments were carried out with solutions of 5-FU prepared immediately before use at a dose of 15 mg kg-' body weight.

[2] = test system: isolated perfused rat liver; assay: in vitro
Protocol: as §1

[3] = test system: isolated perfused rat liver; assay: Liver viability in IPRL experiments (LDH activity in perfusate, bile flow); conditions: Table 1, text
Protocol: as §1, with “The recirculating perfusate (approximately 180 ml), oxygenated with oxygen- carbon dioxide (95%:5%), was a Krebs-Ringer bicarbonate buffer supplemented with glucose (1.3 mM) and bovine serum albumin (0.5%). The perfusate (pH 7.4) was recirculated at a mean flow rate of 10 ml min-1 g-' of liver. The experiments were carried out with solutions of 5-FU prepared immediately before use at a dose of 15 mg kg-' body weight.” left out

[4] = Control experiments without liver: chemical transformation in perfusate (19F-NMR); format: physicochemical
[5] = design: method as in Khor et al, 1996; conditions: humans, without GW776; ref Khor et al, 1996; cited from earlier work
[6] = design: method as in Zhang et al, 1992, 1993; conditions: rats; ref Zhang et al, 1992, 1993; cited from earlier work
[7] = test system: isolated perfused rabbit heart; assay: Cardiotoxicity on the isolated perfused rabbit heart model; conditions: unpublished data
[8] = test system: DPD; design: method as in Baccanari et al (1993); conditions: 1 h or 6 h after single dose GW776 2 mg kg-1 p.o.; compared with > 96% of this study; ref Baccanari et al (1993); cited from earlier work
[9] = test system: mouse tumour models; design: method as in Baccanari et al, 1993; conditions: ref Baccanari et al, 1993; cited from earlier work
[10] = test system: rat tumour models; design: method as in Cao et al, 1994; conditions: ref Cao et al, 1994; cited from earlier work
[11] = test system: dogs; design: method as in Davis et al (1994); conditions: 26-h continuous infusion of 5-FU at 1.6, 4 or 16 mg kg-1 24 h-1; ref Davis et al (1994); cited from earlier work
[12] = test system: MOPC-315 s.c. tumours; design: method as in Davis et al (1995); conditions: compared with mice treated with 5-FU alone; ref Davis et al (1995); cited from earlier work
[13] = Table 4, liver acid-insoluble extract
[14] = FBAL 16.6 mg kg-1 circulated 3 h without liver, after concentration
[15] = GW776 0.5 mg kg-1 1 h before 5-FU 15 mg kg-1

Structure (SMILES): O=c1[nH]cc(F)c(=O)[nH]1 [5-FU, 5-fluorouracil]
- recovery [1]: 0%
- Unmetabolized 5-FU, global recovery [2]: All 5-FU was metabolized
- 5', 2' and 3' FUMP in acid-insoluble extract [2, 13]: 0 Per cent of Injected dose
- 5-FU in acid-insoluble extract [2, 13]: 0 Per cent of Injected dose
- 5-FU in acid-soluble extract ([2]; Table 4, liver acid-soluble extract): 0 Per cent of Injected dose
- Total in acid-soluble extract ([2]; Table 4, liver acid-soluble extract, P<0.01): 13 + 4 Per cent of Injected dose and 13 Per cent of Injected dose
- 5-FU in perfusate ([2]; male, Wistar, rat, pH 7.4): 0 Per cent of Injected dose
- Unmetabolized 5-FU ([2]; male, Wistar, rat, pH 7.4): 0% of injected dose
- LDH activity compared with control experiments [3]: no significant difference
- Chemical transformation in perfusate ([4]; perfusate bubbled with carbogen for 3 h at 37 C): not chemically transformed
- Half-life of 5-FU [5]: approximately 14 min

Structure (SMILES): NCC(F)C(=O)O (stereo not drawn) [FBAL, alpha-fluoro-beta-alanine]
- Retention in various tissues (mainly liver, heart and brain) [6]: up to 8 days
- Adduct of FBAL with a-glucose as share of all the fluorinated compounds detected [4, 14]: 2.4%
- Adduct of FBAL with beta-glucose as share of all the fluorinated compounds detected [4, 14]: 28.3%
- CFBAL as share of all the fluorinated compounds detected [4, 14]: 49.6%
- F- as share of all the fluorinated compounds detected [4, 14]: 1.4%
- FBAL as share of all the fluorinated compounds detected [4, 14]: 18.3%
- FBAL signal share ([4]; solution of FBAL in perfusion medium over 3 h): 98.9%

Structure (SMILES): O=C(O)C(F)CO (stereo not drawn) [FHPA, 2-fluoro-3-hydroxypropionic acid]
- Cardiotoxicity ([7]; 0.01 mg kg-1 (lowest dose)): did not generate cardiotoxic symptoms
- Cardiotoxicity ([7]; 1.5 mg kg-1 (highest dose)): highly cardiotoxic

Structure (SMILES): C#Cc1c[nH]c(=O)[nH]c1=O [GW776, 5-ethynyluracil]
- Inhibition of rat liver ability to catalyse 5-FU degradation ([2]; GW776 0.5 mg kg-1 1 h before 5-FU): > 96%
- Decrease in FBAL formation [2, 15]: approximately 110 factor
- Decrease in fluoride ion formation [2, 15]: approximately 10 factor
- Decrease of the amount of 5-FU catabolites in the presence of GW776 [2, 15]: 27 factor
- Increase of 5-FU anabolites [2, 15]: approximately 7 factor
- Inhibition of DPD activity in liver extracts [8]: the same extent of inhibition
- Therapeutic index of 5-FU [9]: increases the therapeutic index of 5-FU
- Therapeutic index of 5-FU [10]: increases the therapeutic index of 5-FU
- Protection from 5-FU-induced neurotoxicity [11]: protected dogs from the neurotoxicity
- Incorporation of 5-FU into RNA in tumours [12]: enhanced the incorporation
